Experimental data as given in ChEMBL document CHEMBL1212752, “Efficacy of posaconazole in a murine disseminated infection by Candida tropicalis” (2010).
The source made the active and inactive calls.

Key:
Candida tropicalis [1] = assay: Antifungal activity against Candida tropicalis FMR 8895 infected in immunosuppressed OF1 mouse assessed as prolongation of mouse survival at 50 mg/kg, po qd for 5 days; type: functional, organism-based; parameters: dose 50 mg/kg
Candida tropicalis [2] = assay: Antifungal activity against Candida tropicalis FMR 10237 assessed as compound concentration causing =>99% reduction in microbial growth; type: functional
Candida tropicalis [3] = assay: Antifungal activity against Candida tropicalis FMR 10237 infected in immunosuppressed OF1 mouse assessed as prolongation of mouse survival at 50 mg/kg, po qd for 5 days; type: functional, organism-based; parameters: dose 50 mg/kg
Candida tropicalis [4] = assay: Antifungal activity against Candida tropicalis FMR 8898 assessed as compound concentration causing =>99% reduction in microbial growth; type: functional
Candida tropicalis [5] = assay: Antifungal activity against Candida tropicalis FMR 8896 assessed as compound concentration causing =>99% reduction in microbial growth; type: functional
Candida tropicalis [6] = assay: Antifungal activity against Candida tropicalis FMR 10238 assessed as compound concentration causing =>99% reduction in microbial growth; type: functional
Candida tropicalis [7] = assay: Antifungal activity against Candida tropicalis FMR 8895 infected in immunosuppressed OF1 mouse assessed as reduction in fungal tissue burden in mouse kidney at 25 mg/kg, po bid for 5 days; type: functional, organism-based; parameters: dose 25 mg/kg
Candida tropicalis [8] = assay: Antifungal activity against Candida tropicalis FMR 10234 assessed as inhibition of growth by broth dilution method; type: functional
Candida tropicalis [9] = assay: Antifungal activity against Candida tropicalis FMR 10239 assessed as compound concentration causing =>99% reduction in microbial growth; type: functional
Candida tropicalis [10] = assay: Antifungal activity against Candida tropicalis FMR 9726 infected in immunosuppressed OF1 mouse assessed as reduction in fungal tissue burden in mouse spleen at 50 mg/kg, po qd for 5 days; type: functional, organism-based; parameters: dose 50 mg/kg
Candida tropicalis [11] = assay: Antifungal activity against Candida tropicalis FMR 10237 assessed as inhibition of growth by broth dilution method; type: functional
Candida tropicalis [12] = assay: Antifungal activity against Candida tropicalis FMR 9726 assessed as inhibition of growth by broth dilution method; type: functional
Candida tropicalis [13] = assay: Antifungal activity against Candida tropicalis FMR 10239 assessed as inhibition of growth by broth dilution method; type: functional
Candida tropicalis [14] = assay: Antifungal activity against Candida tropicalis FMR 9726 infected in immunosuppressed OF1 mouse assessed as reduction in fungal tissue burden in mouse kidney at 25 mg/kg, po bid for 5 days; type: functional, organism-based; parameters: dose 25 mg/kg
Candida tropicalis [15] = assay: Antifungal activity against Candida tropicalis FMR 8897 assessed as compound concentration causing =>99% reduction in microbial growth; type: functional
Candida tropicalis [16] = assay: Antifungal activity against Candida tropicalis FMR 8895 infected in immunosuppressed OF1 mouse assessed as reduction in fungal tissue burden in mouse kidney at 50 mg/kg, po qd for 5 days; type: functional, organism-based; parameters: dose 50 mg/kg
Candida tropicalis [17] = assay: Antifungal activity against Candida tropicalis FMR 9726 assessed as compound concentration causing =>99% reduction in microbial growth; type: functional
Candida tropicalis [18] = assay: Antifungal activity against Candida tropicalis FMR 8898 assessed as inhibition of growth by broth dilution method; type: functional
Candida tropicalis [19] = assay: Antifungal activity against Candida tropicalis FMR 9726 infected in immunosuppressed OF1 mouse assessed as reduction in fungal tissue burden in mouse spleen at 25 mg/kg, po bid for 5 days; type: functional, organism-based; parameters: dose 25 mg/kg
Candida tropicalis [20] = assay: Antifungal activity against Candida tropicalis FMR 10239 infected in immunosuppressed OF1 mouse assessed as prolongation of mouse survival at 25 mg/kg, po bid for 5 days; type: functional, organism-based; parameters: dose 25 mg/kg
Candida tropicalis [21] = assay: Antifungal activity against Candida tropicalis FMR 10239 infected in immunosuppressed OF1 mouse assessed as prolongation of mouse survival at 50 mg/kg, po qd for 5 days; type: functional, organism-based; parameters: dose 50 mg/kg
Candida tropicalis [22] = assay: Antifungal activity against Candida tropicalis FMR 9727 assessed as inhibition of growth by broth dilution method; type: functional
Candida tropicalis [23] = assay: Antifungal activity against Candida tropicalis FMR 8895 infected in immunosuppressed OF1 mouse assessed as reduction in fungal tissue burden in mouse spleen at 50 mg/kg, po qd for 5 days; type: functional, organism-based; parameters: dose 50 mg/kg
Candida tropicalis [24] = assay: Antifungal activity against Candida tropicalis FMR 10236 assessed as compound concentration causing =>99% reduction in microbial growth; type: functional
Candida tropicalis [25] = assay: Antifungal activity against Candida tropicalis FMR 9726 infected in immunosuppressed OF1 mouse assessed as prolongation of mouse survival at 25 mg/kg, po bid for 5 days; type: functional, organism-based; parameters: dose 25 mg/kg
Candida tropicalis [26] = assay: Antifungal activity against Candida tropicalis FMR 8896 assessed as inhibition of growth by broth dilution method; type: functional
Candida tropicalis [27] = assay: Antifungal activity against Candida tropicalis FMR 10232 assessed as compound concentration causing =>99% reduction in microbial growth; type: functional
Candida tropicalis [28] = assay: Antifungal activity against Candida tropicalis FMR 9727 assessed as compound concentration causing =>99% reduction in microbial growth; type: functional
Candida tropicalis [29] = assay: Antifungal activity against Candida tropicalis FMR 10237 infected in immunosuppressed OF1 mouse assessed as prolongation of mouse survival at 25 mg/kg, po bid for 5 days; type: functional, organism-based; parameters: dose 25 mg/kg
Candida tropicalis [30] = assay: Antifungal activity against Candida tropicalis FMR 10241 assessed as compound concentration causing =>99% reduction in microbial growth; type: functional
Candida tropicalis [31] = assay: Antifungal activity against Candida tropicalis FMR 10234 assessed as compound concentration causing =>99% reduction in microbial growth; type: functional
Candida tropicalis [32] = assay: Antifungal activity against Candida tropicalis FMR 10240 assessed as inhibition of growth by broth dilution method; type: functional

CC[C@@H]([C@H](C)O)n1ncn(-c2ccc(N3CCN(c4ccc(OC[C@@H]5CO[C@@](Cn6cncn6)(c6ccc(F)cc6F)C5)cc4)CC3)cc2)c1=O [POSACONAZOLE]
1 µg/mL: MFC (Candida tropicalis [9]) | MIC50 (Candida tropicalis [11])
0.06 µg/mL: MIC50 (Candida tropicalis [8])
0.125 µg/mL: MIC50 (Candida tropicalis [18]) | MIC50 (Candida tropicalis [26])
inactive: Activity (Candida tropicalis [7]) | Activity (Candida tropicalis [16]) | Activity (Candida tropicalis [23])
< 0.03 µg/mL: MIC50 (Candida tropicalis [13]) | MIC50 (Candida tropicalis [22]) | MIC50 (Candida tropicalis [32])
> 16 µg/mL: MFC (Candida tropicalis [2]) | MFC (Candida tropicalis [4]) | MFC (Candida tropicalis [5]) | MFC (Candida tropicalis [6]) | MFC (Candida tropicalis [15]) | MFC (Candida tropicalis [17]) | MFC (Candida tropicalis [24]) | MFC (Candida tropicalis [27]) | MFC (Candida tropicalis [28]) | MFC (Candida tropicalis [30]) | MFC (Candida tropicalis [31])
active: Activity (Candida tropicalis [1]) | Activity (Candida tropicalis [3]) | Activity (Candida tropicalis [10]) | Activity (Candida tropicalis [14]) | Activity (Candida tropicalis [19]) | Activity (Candida tropicalis [20]) | Activity (Candida tropicalis [21]) | Activity (Candida tropicalis [25]) | Activity (Candida tropicalis [29])
0.5 µg/mL: MIC50 (Candida tropicalis [12])
